Values quoted from earlier work in PMC10006169, “A phase I trial of LXS196, a protein kinase C (PKC) inhibitor, for metastatic uveal melanoma” (British Journal of Cancer, 2023).

System: 92.1 human UM xenograft
Design: method as in PMID 27507190
Conditions: doses below MTD; cited from earlier work

For `CC1(N)CCN(c2cccnc2NC(=O)c2nc(-c3ncccc3C(F)(F)F)cnc2N)CC1` [LXS196], the “Tumour effect as single agent” value is listed as “tumour regression”.
